# Test results reported in US8343966B2, “Organic compounds” (Novartis AG, priority 2008, dated 2013).
# Molecular target: T1, human ALK5 (ALK5 T204D kinase domain) (Homo sapiens, UniProt P36897, T204D)
# T1 construct: The kinase domain of human ALK5 (amino acids 200-503); made in house; host or cells: insect cells (baculovirus)
# T1 sequence (P36897 200-503 T204D): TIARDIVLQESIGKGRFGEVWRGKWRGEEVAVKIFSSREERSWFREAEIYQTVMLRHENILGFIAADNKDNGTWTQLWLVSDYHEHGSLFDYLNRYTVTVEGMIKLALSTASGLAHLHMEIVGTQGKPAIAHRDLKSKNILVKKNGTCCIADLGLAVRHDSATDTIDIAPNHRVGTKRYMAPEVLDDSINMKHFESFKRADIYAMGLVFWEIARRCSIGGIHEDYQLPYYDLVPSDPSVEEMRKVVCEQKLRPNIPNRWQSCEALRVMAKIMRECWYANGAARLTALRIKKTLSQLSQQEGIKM
# Test: ALK5 kinase assay, [33P] phosphate incorporation into casein
# Assay type: biochemical
# Settings: casein substrate, 1 μM unlabelled ATP
# Method: The kinase activity of ALK5 is assessed by measuring radiolabelled phosphate [33P] incorporation in to the generic substrate, casein. The kinase domain of human ALK5 (amino acids 200-503) is fused to an N-terminal histidine tag. The kinase activity of ALK5 is rendered constitutive via point mutation at amino acid 204 (threonine to aspartate modification, ALK5 T204D) and the kinase construct is engineered to be expressed from a baculovirus expression construct in insect cells. The purified, recombinantly-expressed histidine-tagged ALK5 T204D protein is dissolved at 5.4 mg/ml in 50 mM Tris-HCl pH 8.0, 150 mM NaCl, 5 mM DTT. ALK5 T204D is dissolved to 2.5 μg/ml in assay buffer (Assay buffer: 20 mM Tris-HCl pH 7.4, 10 mM MgCl2, 2 mM MnCl2) on the day of use.
# Test compounds and reference compounds are dissolved in assay buffer without DTT containing 5% (v/v) DMSO. Stock solutions of test and reference compounds are diluted in assay buffer with DTT (1.25 mM) containing 4.5% (v/v) DMSO. 10 μl of test or reference compound are added to the appropriate wells of 96 well U-bottomed plate. Total enzyme activity is determined by measuring ALK5 T204D activity in the absence of ALK5 kinase inhibitor reference compounds. Non-specific binding (NSB) is determined by measuring the activity of ALK5 T204D in the presence of ALK5 kinase inhibitor reference compounds. 10 μl of dephosphorylated casein stock solution (dephosphorylated casein is dissolved in ddH2O at 20 mg/ml) is added per well (200 μg/well final assay concentration). 20 μl of ALK5 T204D (2.5 μg/ml solution) is added per well (50 ng/well final assay concentration). The plates are left to incubate at room temperature for 10 minutes.
# 10 μl of ATP mix is added to the well to initiate the reaction (0.66 nM [^33P]ATP/1 μM unlabelled ATP/well final assay concentration). The ATP mix is prepared as follows, unlabelled ATP (3 mM) is dissolved in ddH2O and pH adjusted to 7.4. The stock concentration of [^33P]ATP is 10 μCi/μl. The appropriate volume of [^33P]ATP is added to unlabelled ATP solution such that the final assay concentration per well is 0.1 μCi. Following addition of the ATP mix, the plates are incubated at room temperature for 50 minutes. The kinase reaction is terminated by the addition of 50 μL Stop Buffer (20 mM Tris-HCl pH 7.4, 10 mM EDTA).
# 75 μl/well from the reaction plate is transferred to a Multiscreen-IP plate (MultiScreen-IP plates are prepared by added 50 μL of 70% (v/v) ethanol per well and incubated for 5 minutes at room temperature. The ethanol is removed by aspiration via a MultiScreen HTS Vacuum Manifold unit (Millipore, Cat no: MSVMHT500). The plates are washed twice by adding 200 μl/well ddH2O). The MultiScreen-IP plate is incubated at room temperature for 30 minutes to allowing binding of casein to the plate. The MultiScreen-IP plates are washed three times by adding 200 μl/well 100 mM phosphoric acid solution and the gasket is carefully removed from the back of the MultiScreen-IP plate and the plate dried in the oven for 30 minutes. The MultiScreen-IP plate is backsealed, 50 μL of Microscint™20 is added, then the plates are topsealed and radiolabelled casein detected and quantified on a TopCount™ plate-reader using the ^33P scintillation protocol.
row,SMILES,IC50 [nM]
1,"CNc1cc(-c2cncc(-c3ccc(CN4CCN(C(C)C)CC4)cc3)c2)cc(-c2ccccn2)n1 [Example 2.24, {5″-[4-(4-Isopropyl-piperazin-1-ylmethyl)-phenyl]-[2,2′;4′,3″]terpyridin-6′-yl}-methyl-amine]",14
2,"CCNc1cc(-c2cncc(-c3cc(C)cc(CN)c3)c2)cc(-c2ccccn2)n1 [Example 2.116, [5″-(3-Aminomethyl-5-methyl-phenyl)-[2,2′;4′,3″]terpyridin-6′-yl]-ethyl-amine]",48
3,"c1ccc(-c2cc(-c3cccnc3)cc(NCc3cccc4[nH]ccc34)n2)nc1 [Example 1.15, (1H-Indol-4-ylmethyl)-[2,2′;4′,3″]terpyridin-6′-yl-amine]",190
4,"Cc1ccc(-c2cc(-c3cncc(-c4ccc(CN5CCN(C(C)C)CC5)cc4)c3)cc(NC3CC3)n2)o1 [Example 2.125, Cyclopropyl-[5-[4-(4-isopropyl-piperazin-1-ylmethyl)-phenyl]-6′-(5-methyl-furan-2-yl)-[3,4′]bipyridinyl-2′-yl]-amine]",38
5,"CC(C)N1CCN(Cc2ccc(-c3cncc(-c4cc(N)nc(-c5ccccn5)c4)c3)cc2)CC1 [Example 2.72, 5″-[4-(4-Isopropyl-piperazin-1-ylmethyl)-phenyl]-[2,2′;4′,3″]terpyridin-6′-ylamine]",42
6,"c1ccc(-c2cc(-c3cccnc3)cc(NCCc3c[nH]c4ccccc34)n2)nc1 [Example 1.10, [2-(1H-Indol-3-yl)-ethyl]-[2,2′;4′,3″]terpyridin-6′-yl-amine]",57
7,"c1ccc(-c2cc(-c3cncc(-c4ccc(CN5CCNCC5)cc4)c3)cc(NC3CC3)n2)nc1 [Example 2.70, Cyclopropyl-[5″-(4-piperazin-1-ylmethyl-phenyl)-[2,2′;4′,3″]terpyridin-6′-yl]-amine]",89
8,"[2H]C([2H])([2H])Nc1cc(-c2cncc(-c3ccc(CN4CCN(C(C)C)CC4)cc3)c2)cc(-c2ccccn2)n1 [Example 2.100, {5″-[4-(4-Isopropyl-piperazin-1-ylmethyl)-phenyl]-[2,2′;4′,3″]terpyridin-6′-yl}-methyl-d3-amine]",11
9,"CNc1cc(-c2cncc(-c3cnn(C4CCNCC4)c3)c2)cc(-c2ccn(C)n2)n1 [Example 2.179, Methyl-[6′-(1-methyl-1H-pyrazol-3-yl)-5-(1-piperidin-4-yl-1H-pyrazol-4-yl)-[3,4′]bipyridinyl-2′-yl]-amine]",5
10,"[2H]C([2H])([2H])Nc1cc(-c2cncc(-c3ccc(CN4CCNCC4)cc3)c2)cc(-c2ccccn2)n1 [Example 2.102, Methyl-d3-[5″-(4-piperazin-1-ylmethyl-phenyl)-[2,2′;4′,3″]terpyridin-6′-yl]-amine]",14
11,"CNc1cc(-c2cncc(-c3cccc(N4CCCC4)c3)c2)cc(-c2ccccn2)n1 [Example 2.12, Methyl-[5″-(3-pyrrolidin-1-yl-phenyl)-[2,2′;4′,3″]terpyridin-6′-yl]-amine]",209
12,"CC(C)Nc1cc(-c2cncc(-c3cccc(CN4CCN(C(C)(C)C)CC4)c3)c2)cc(-c2ccccn2)n1 [Example 2.133, {5″-[3-(4-tert-Butyl-piperazin-1-ylmethyl)-phenyl]-[2,2′;4′,3″]terpyridin-6′-yl}-isopropyl-amine]",357
13,"CC(C)(C)N1CCN(Cc2cccc(-c3cncc(-c4cc(NC5CC5)nc(-c5ccccn5)c4)c3)c2)CC1 [Example 2.119, {5″-[3-(4-tert-Butyl-piperazin-1-ylmethyl)-phenyl]-[2,2′;4′,3″]terpyridin-6′-yl}-cyclopropyl-amine]",64
14,"Cn1cc(-c2cncc(-c3cc(-c4ccccn4)nc(C(C)(C)O)c3)c2)cn1 [Example 2.86, 2-[5″-(1-Methyl-1H-pyrazol-4-yl)-[2,2′;4′,3″]terpyridin-6′-yl]-propan-2-ol]",92
15,"CC(C)(C)N1CCN(Cc2ccc(-c3cncc(-c4cc(N)nc(-c5ccccn5)c4)c3)cc2)CC1 [Example 2.158, 5″-[4-(4-tert-Butyl-piperazin-1-ylmethyl)-phenyl]-[2,2′;4′,3″]terpyridin-6′-ylamine]",35
